Entries after “also recorded” stand apart in the source; their conditions may differ.
Assays:
NLRP3 inflammasome [1] = target: T1, NLRP3 inflammasome (Homo sapiens, UniProt Q96P20); assay: NLRP3 inflammasome activation assay in Kupffer cells (LPS priming, nigericin), IL-1β/IL-18 by ELISA; format: cell-based; settings: KCs; LPS, nigericin; read-out: KC IL-1β IC50
Excerpt: (§1) Some of the following assays were used to determine the inhibitory activity of the compounds on the NLRP3 inflammasome using a common inflammasome activation stimuli-nigericin.
Human Kupffer cells (KCs), specialized liver macrophages residing in […], were obtained by gradient isolation from liver specimens harvested post-mortem by Samsara Sciences. Cells were obtained through an IRB approved donor program by Samsara Sciences and all donors tested negative for bacterial and viral infections.
(§2) Cells were then stimulated with 10 uM Nigericin (Sigma Aldrich; InvivoGen) for 1.5 h. Plates were centrifuged at 1,500 rpm for 3 minutes to pellet cells and supernatant was transferred into new plates for subsequent experiments.
(§3) For ELISA assays cells were seeded into 96-well plates. Post study, supernatants were removed and the levels of mature IL-1β, IL-18 and TNFα (Quantikine ELISA, R&D systems) were measured in cell conditioned media by ELISA according to manufacturer's instructions.

TNFα [2] = assay: TNFα levels of LPS and nigericin stimulated cells (counter-screen); format: cell-based, human
Method: as §3
TNFα levels of LPS and nigericin stimulated cells is measured by HTRF assay (Cisbio, Bedford, Mass.). […] Measuring TNFalpha production also serves as a technical counter-screen to eliminate compounds that interfere with the HTRF reagents. Thus compounds that inhibit both IL-1β and TNFα levels are triaged for either being non-selective for inflammasome or interfering with the HTRF readout.

NLRP3 inflammasome [3] = target: T1, NLRP3 inflammasome; assay: NLRP3 inflammasome activation assay in PBMCs (LPS priming, nigericin), IL-1β by ELISA; format: cell-based; parameters: Human peripheral blood mononuclear cells (PBMCs); host or cells: primary human PBMCs from healthy donors; settings: for IC50: LPS, nigericin, read-out: PBMC IL-1β IC50
Method: as §1
Human peripheral blood mononuclear cells (PBMCs), consisting of lymphocytes (T, B and NK cells), monocytes and dendritic cells, were freshly isolated from human peripheral blood from healthy donors. Cells were obtained through an IRB approved donor program by iXCells Biotechnologies where all the donors were tested for bacterial and viral infections. Cells were purified from peripheral blood using ficoll gradient centrifugation.
as §2, §3

[4] = test system: LPS and nigericin stimulated cells; assay: cells; format: cell-based; settings: Homo sapiens; LPS and nigericin stimulated cells, CellTiter-Glo; read-out: CTG protective IC50
Method: Viability of compound treated cells is measured using CellTiter-Glo® assay (Promega, Madison, Wis.) that measures the ATP content of cells which is proportional to the number of live cells within a well. This is a counter-screen to establish that the reduction of IL-1β levels in LPS and nigericin stimulated and compound treated cells is not due to cytotoxicity, but rather through the inhibition of the inflammasome pathway. Compounds inhibiting NRLP3 inflammasome activation ultimately increase the viability of LPS and nigericin stimulated cells by blocking NLRP3 mediated pyroptosis that would otherwise lead to cell lysis.

[5] = Human microsomal stability (Eh); format: in vitro ADME; settings: hepatic extraction ratio; 0.5 mg/mL microsomal protein, 1 μM, NADPH; liver blood flow 20.7 mL/min/kg
Method: The stock solutions of test article and positive control were prepared at a concentration of 10 mM using DMSO as diluents. All stock solutions were then diluted to working concentrations at 0.25 mM with 70% acetonitrile. The cofactor used in this study was NADPH regenerating system, that was composed of 6.5 mM NADP, 16.5 mM G-6-P, 3 U/mL G-6-P D. The quench reagent was consisted of acetonitrile containing tolbutamide and propanolol (serve as internal standard). Incubation mixtures containing 0.5 mg/mL liver microsomal protein and […] test article/positive control in 100 mM potassium phosphate buffer.
The 0-minute samples were prepared by addition of an 80 μL aliquot of each incubation mixture to 300 μL quench reagent to precipitate proteins. The samples were vortexed, and then a 20 μL aliquot of the NADPH regenerating system was added in. The reaction was initiated by addition of 80 μL of the NADPH regenerating system to 320 μL of each incubation mixture. The final incubation conditions achieved in 400 μL are: 0.5 mg/mL microsomal protein, 1 μM test article/positive control, 1.3 mM NADP, 3.3 mM glucose 6 phosphate, 0.6 U/mL glucose 6 phosphate dehydrogenase. The mixtures were incubated in a 37° C. water bath with gentle shaking. A 100 μL aliquot of each mixture was removed at 10, 30, 90 minutes to a clean 96-well plate which contains 300 μL quench reagent to precipitate proteins, and centrifuged (4000×g, 10 min). 80 μL of supernatant are taken into 96-well assay plates pre-added with 160 μL ultrapure water, and then analyzed by LC-MS/MS. Hepatic extraction ratio (Eh) values were calculated from measured in vitro clearance assuming a human liver blood flow of 20.7 mL/min/kg. Eh values of <0.3 are indicative of compounds with favorable metabolic stability.

TNFα [6] = assay: LPS/ATP challenge model in C57BL/6 mice, TNFα in peritoneal lavage; format: in vivo; settings: 3.5 hours post dose
Method: (§4) The purpose of this study was to determine the effects of Compounds 1 and 2 treatment on cytokine production after LPS/ATP injection in female C57BL/6 mice.
(§5) On Day −1 mice were weighed and assigned to groups per Table 2 (see below) in a balanced manner to achieve similar average weight across the groups at the start of the study.
(§6) All mice received a single dose of treatment or vehicle, at hour minus 1.
(§7) At hour 0, all mice received 1 μg of lipopolysaccharide, ultra pure (LPS, InvivoGen, San Diego, Calif.) in 0.5 ml PBS, intraperitoneally.
(§8) At hour 2 (two hours after LPS injection), all mice were injected intraperitoneally with 0.5 ml of 80 mM ATP disodium salt (Sigma, pH adjusted to 7.2 before injection).
(§9) At hour 2.5 (30 minutes after ATP injection and 3.5 hours after compound dosing), blood from all mice was collected via retro-orbital bleeding into K2 EDTA tubes and plasma was prepared and stored at […]. Samples were shipped to the customer or vendor of customers choosing within 7 days of completing the study.
(§10) Immediately after the collection of blood, each mouse was euthanized, the peritoneal cavity was lavaged with 3 ml of ice-cold PBS containing 25 U/ml heparin sodium salt, cocktail of protease inhibitors (Complete™ ULTRA Tablets, Sigma, Roche), and 10% FBS. Approximately 1 ml of the lavage was collected, spun down to remove cells and the supernatant stored at −80° C.
(§11) Compound powders were stored at 4° C. All compounds were prepared fresh. Compounds were weighed out and first ground with a mortar and pestle, then ground with a small amount of vehicle. The mortar was then repeatedly rinsed with vehicle to remove all material and achieve the correct concentration. The final solution was vortexed to create a homogeneous mixture
(§12) Mouse IL-1β and TNFα concentrations in peritoneal lavage samples were determined using Becton Dickinson (Franklin Lakes, N.J.) CBA analysis kit, according to manufacturer's protocol. A single analysis was performed on each sample.
(§13) Concentrations of cytokines were compared using Student t-test.

IL-1β = assay: LPS/ATP challenge model in C57BL/6 mice, IL-1β in peritoneal lavage; format: in vivo; settings: 3.5 hours post dose
Method: as §4, §5, §6, §7, §8, §9, §10, §11, §12, §13

pro-caspase-1 = assay: Inhibition of Caspase1 activation in bone marrow derived macrophages (Western Blot); format: cell-based, mouse; settings: 10 μM; BMDMs, LPS 100 ng/ml 3 hours, nigericin 10 μM 90 minutes

T1 sequence (Q96P20 whole entry): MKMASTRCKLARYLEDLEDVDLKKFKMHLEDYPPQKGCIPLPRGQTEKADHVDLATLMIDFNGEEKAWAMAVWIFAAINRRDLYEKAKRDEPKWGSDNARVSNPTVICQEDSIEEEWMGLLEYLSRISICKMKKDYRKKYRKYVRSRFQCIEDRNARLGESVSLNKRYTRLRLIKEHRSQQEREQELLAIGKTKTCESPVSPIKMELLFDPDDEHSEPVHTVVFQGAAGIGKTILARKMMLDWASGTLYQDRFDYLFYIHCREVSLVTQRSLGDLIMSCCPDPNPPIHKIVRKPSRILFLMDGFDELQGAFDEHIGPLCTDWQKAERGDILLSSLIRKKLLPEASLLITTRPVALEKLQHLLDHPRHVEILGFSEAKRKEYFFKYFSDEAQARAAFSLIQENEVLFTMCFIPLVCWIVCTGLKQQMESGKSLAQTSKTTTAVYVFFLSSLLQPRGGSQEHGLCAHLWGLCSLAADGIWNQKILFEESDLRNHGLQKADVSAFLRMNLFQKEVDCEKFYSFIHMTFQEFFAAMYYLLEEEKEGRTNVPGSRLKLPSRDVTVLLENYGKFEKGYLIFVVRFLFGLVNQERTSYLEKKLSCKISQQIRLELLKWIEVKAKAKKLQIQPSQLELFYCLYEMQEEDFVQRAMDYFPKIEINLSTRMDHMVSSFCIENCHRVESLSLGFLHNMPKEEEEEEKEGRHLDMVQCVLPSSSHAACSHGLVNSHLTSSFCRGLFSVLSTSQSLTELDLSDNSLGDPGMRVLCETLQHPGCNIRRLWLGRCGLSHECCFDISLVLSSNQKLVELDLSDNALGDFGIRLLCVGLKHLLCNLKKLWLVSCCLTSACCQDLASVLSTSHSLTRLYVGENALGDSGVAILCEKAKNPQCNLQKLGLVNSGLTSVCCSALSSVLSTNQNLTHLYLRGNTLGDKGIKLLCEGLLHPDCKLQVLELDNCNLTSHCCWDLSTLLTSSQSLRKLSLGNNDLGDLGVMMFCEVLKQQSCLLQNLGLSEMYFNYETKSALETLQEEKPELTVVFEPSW

| SMILES | IC50 (NLRP3 inflammasome [1]) | TNFα IC50 (PBMC or KC) (TNFα [2]) | IC50 (NLRP3 inflammasome [3]) | IC50 [4] | Human Microsomal Stability (Eh) [5] | other results |
| --- | --- | --- | --- | --- | --- | --- |
| CO[C@@H]1COc2c(S(=O)(=O)NC(=O)Nc3c4c(cc5c3CCC5)CCC4)cnn2C1 | 100 to 1000 nM | No Curve | 100 to 1000 nM | 100 to 1000 nM | 0.2 | – |
| O=C(Nc1c2c(cc3c1CCC3)CCC2)NS(=O)(=O)c1cnn2c1OC[C@H](O)C2 | < 100 nM | No Curve | < 100 nM | < 100 nM | <0.1 | – |
| CCO[C@H]1COc2c(S(=O)(=O)NC(=O)Nc3c4c(cc5c3CCC5)CCC4)cnn2C1 | < 100 nM | No Curve | < 100 nM | < 100 nM | 0.4 | – |
| CS(=O)(=O)NC(=O)Nc1c2c(cc3c1CCC3)CCC2 [Compound 2, N-((1,2,3,5,6,7-hexahydro-s-indacen-4-yl)carbamoyl)methanesulfonamide] | – | – | – | – | – | % Decrease of TNFα vs. Vehicle (TNFα [6]; single oral dose 0.25 mg/kg): −12.5%; Mean (TNFα) (TNFα [6]; single oral dose 0.25 mg/kg): 384.7 pg/mL; % Decrease of TNFα vs. Vehicle (TNFα [6]; single oral dose 1 mg/kg): −15.5%; Mean (TNFα) (TNFα [6]; single oral dose 1 mg/kg): 394.9 pg/mL; % Decrease of TNFα vs. Vehicle (TNFα [6]; single oral dose 2.5 mg/kg): −218%; Mean (TNFα) (TNFα [6]; single oral dose 2.5 mg/kg): 416.6 pg/mL; Mean (IL-1β) (IL-1β; single oral dose 0.25 mg/kg): 392.7 pg/mL; % Decrease of IL-1β vs. Vehicle (IL-1β; single oral dose 0.25 mg/kg, 0.25 mg/kg): 71.0%; Mean (IL-1β) (IL-1β; single oral dose 1 mg/kg): 12.9 pg/mL; % Decrease of IL-1β vs. Vehicle (IL-1β; single oral dose 1 mg/kg, 1 mg/kg): 99.0%; Mean (IL-1β) (IL-1β; single oral dose 2.5 mg/kg): 10.7 pg/mL; % Decrease of IL-1β vs. Vehicle (IL-1β; single oral dose 2.5 mg/kg, 2.5 mg/kg): 99.2%; activation of pro-caspase-1 (p45 and p10 bands, Western Blot) (pro-caspase-1): blocked; also recorded: inhibition of activation |
| O=S(=O)(NC(=S)Nc1c2c(cc3c1CCC3)CCC2)c1cnn2c1OCCC2 [Compound 3, N-((1,2,3,5,6,7-hexahydro-s-indacen-4-yl)carbamothioyl)-6,7-dihydro-5H-pyrazolo[5,1-b][1,3]oxazine-3-sulfonamide] | – | – | – | – | – | % Decrease of IL-1β vs. Vehicle (IL-1β; single oral dose 0.25 mg/kg): 53.0%; Mean (IL-1β) (IL-1β; single oral dose 0.25 mg/kg): 781.8 pg/mL; % Decrease of IL-1β vs. Vehicle (IL-1β; single oral dose 1 mg/kg): 96.5%; Mean (IL-1β) (IL-1β; single oral dose 1 mg/kg): 57.7 pg/mL; % Decrease of IL-1β vs. Vehicle (IL-1β; single oral dose 2.5 mg/kg): 99.1%; Mean (IL-1β) (IL-1β; single oral dose 2.5 mg/kg): 14.6 pg/mL; IL-1β production in PBMCs (FIG. 1) (NLRP3 inflammasome [3]): inhibition |
| O=C(Nc1c2c(cc3c1CCC3)CCC2)NS(=O)(=O)c1cnn2c1CCCC2 [Compound 4, N-((1,2,3,5,6,7-hexahydro-s-indacen-4-yl)carbamoyl)-4,5,6,7-tetrahydropyrazolo[1,5-a]pyridine-3-sulfonamide] | – | – | – | – | – | activation of pro-caspase-1 (p45 and p10 bands, Western Blot) (pro-caspase-1): blocked; also recorded: inhibition of activation |
| CC1(C)COc2c(S(=O)(=O)NC(=O)Nc3c4c(cc5c3CCC5)CCC4)cnn2C1 [drawing 513] | < 100 nM | No Curve | < 100 nM | < 100 nM | 0.5 | – |
| O=C(Nc1c2c(cc3c1CCC3)CCC2)NS(=O)(=O)c1cnn2c1OCC(O)C2 (stereo not shown) [drawing 514] | < 100 nM | No Curve | < 100 nM | < 100 nM | 0.1 | – |

— patent US11702428B2, “Chemical compounds as inhibitors of interleukin-1 activity” (Genentech, Inc., priority 2017, dated 2023)
